Reference: paper PMC10361207, “Cannabinoid and Opioid Receptor Affinity and Modulation of Cancer-Related Signaling Pathways of Machaeriols and Machaeridiols from Machaerium Pers” (Molecules, 2023)
≈ marks a conversion by molar mass, not a printed value. Read-outs that look alike come from different tables or passages of the source.

How the values were obtained:
δ opioid receptor = biological target: T1, δ opioid receptor (Homo sapiens, UniProt P41143); assay: Competitive radioligand binding assay, δ opioid; settings: for inhibition at 10 µM: [3H]-enkephalin (DPDPE), read-out: Percent displacement, Δ
T1 construct: host or cells: HEK293, stably transfected; membranes
T1 sequence (P41143 whole entry): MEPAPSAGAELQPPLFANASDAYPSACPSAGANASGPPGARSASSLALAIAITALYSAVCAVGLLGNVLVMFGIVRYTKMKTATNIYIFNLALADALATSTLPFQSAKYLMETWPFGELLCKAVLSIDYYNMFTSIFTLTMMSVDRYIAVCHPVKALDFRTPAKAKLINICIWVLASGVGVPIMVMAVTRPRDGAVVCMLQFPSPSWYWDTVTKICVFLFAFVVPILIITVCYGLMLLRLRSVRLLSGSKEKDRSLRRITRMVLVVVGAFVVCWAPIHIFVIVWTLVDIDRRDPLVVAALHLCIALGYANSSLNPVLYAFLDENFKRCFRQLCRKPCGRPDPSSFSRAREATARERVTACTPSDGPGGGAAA
Description: HEK293 cells stably transfected with δ, κ and μ opioid subtypes were a generous gift from Roth Laboratories (University of North Carolina at Chapel Hill, N.C., USA). CB and opioid cells were maintained as previously described.
Membranes were purified by first washing the cells with cold PBS and scraping the cells into cold 50 mM Tris-HCl, pH 7.4 buffer, which was centrifuged at 5200× g for 10 min at 4 °C; next, the supernatant was discarded, and the pellet was washed with more Tris-HCl buffer, homogenized via a Sonic Dismembrator (Fisher Scientific, Pittsburgh, PA, USA) and then centrifuged at 24,000× g for 40 min at 4 °C. Finally, the pellet was re-suspended in cold 50 mM Tris-HCl buffer, aliquoted into 2 mL vials and stored at −80 °C. The total membrane protein concentration was measured using a Pierce BCA Protein Assay Kit (Thermo Scientific, Rockford, IL, USA) as per the manufacturer’s protocol.
Cannabinoid and opioid competitive radioligand binding assays were performed as previously described. Saturation experiments were performed for all the receptors to determine the receptor concentration and radioligand dissociation constant (Kd) for the membrane. Percent displacements were evaluated for all the cannabinoid and opioid subtypes with a triplicate of a fixed concentration (10 µg/mL for extracts and fractions and 10 μM for purified compounds). […] Control/test compounds were dissolved in DMSO at 10 μg/mL for extracts and fractions and 10 μM for purified compounds. […] The percent displacement was calculated to represent the ability of the samples to displace the radioligand binding for a given cannabinoid or opioid receptor subtype.
The percent displacement was calculated as follows: 100−binding of compound−nonspecific binding/specific binding×100
The competitive binding assays were performed using 12 serial dilutions of each compound ranging from 0.002 to 300 μM (control compounds were serially diluted from 10 μM to 0.06 nM). The cannabinoid assays were incubated for 90 min at 37 °C with gentle agitation. The opioid assays were incubated for 60 min at room temperature. Bound radioligands were collected on GF/C (cannabinoid) or GF/B plates (opioid) and washed 10 times with ice-cold 50 mM Tris-HCl (pH 7.4)/0.1% BSA (cannabinoid) or ice-cold 50 mM Tris-HCl (pH 7.4) (opioid). Radiodetection was measured with 50 µL (cannabinoid) or 25 µL (opioid) of MicroScint^TM-20 on a TopCount NXT HTS Microplate Scintillation Counter (PerkinElmer, Waltham, MA, USA). The IC50 and Ki values were calculated via a non-linear curve fit model using GraphPad Prism 5.0 software (GraphPad Software, Inc., San Diego, CA, USA). Each compound was tested in triplicate unless stated otherwise.

[1] = Cytotoxicity, Neutral Red, SK-MEL; assay type: cell-based; settings: human, SK-MEL malignant melanoma cells, Na = not active up to 50 µg/mL
Description: (§1) In vitro cytotoxic activity was determined against five human cancer cell lines—malignant melanoma (SK-MEL), epidermal carcinoma oral (KB), ductal carcinoma breast (BT-549), ovary carcinoma (SKOV-3) and cervical (HeLa) cancer cells—and two non-cancerous kidney cell lines (LLC-PK1 and Vero). All cell lines were obtained from the American Type Culture Collection (ATCC, Rockville, MD, USA). Each assay was performed in 96-well tissue culture-treated microplates. The cells were seeded at a density of 25,000 cells/well and incubated for 24 h. Samples at different concentrations were added, and the cells were incubated again for 48 h. At the end of the incubation, the cell viability was determined using Neutral Red dye according to a modification of the procedure used by Borenfreund et al.. IC50 values were determined from dose–response curves of the percent growth inhibition against test concentrations. Doxorubicin was used as a positive control, while DMSO was used as the negative (vehicle) control.

[2] = Cytotoxicity, Neutral Red, SK-OV-3; assay type: cell-based; settings: human, SK-OV-3 ovary carcinoma cells, Na = not active up to 50 µg/mL
Description: as §1

Stat3 = assay: Luciferase reporter assay, Stat3, HeLa; assay type: cell-based, human
Description: (§2) Hela cells (or T98G cells) from ATCC were plated in white opaque 384-well plates at a density of 4300 cells/well in 30 µL of growth medium (DMEM with 10% FBS and 1% Pen/Strep). The next day, the medium was aspirated and replaced with DMEM containing 1% FBS. The cells were transfected with respective plasmids using X-tremeGENE HP DNA transfection reagent (Roche). After 24 h of transfection, the test agents were added to the transfected cells, followed 30 min later by an inducing agent: interleukin 6 (IL-6) for Stat3, TGF-β for Smad, m-wnt3a for Wnt and PMA for AP-1, NF-κB, E2F, Myc, ETS, Notch and Hedgehog. No inducer was added for FoXO and pTK. After 4 h or 6 h of induction, the cells were lysed via the addition of the One-Glo luciferase assay system (Promega; Madison, WI). The light output was detected in a GloMax®-Multi+ Detection System with Instinct® Software (Promega E 8051). This luciferase assay determines if the test agent is able to inhibit the activation of cancer-related signaling pathways. In the case of FoxO, the enhanced luciferase activity via the test agent was assessed.

Smad2/3 = assay: Luciferase reporter assay, Smad2/3, HeLa; assay type: cell-based, human
Description: as §2

E2F = assay: Luciferase reporter assay, E2F, HeLa; assay type: cell-based, human; settings: Homo sapiens, HeLa; for IC50: read-out: IC50, E2F (PMA)
Description: as §2

Myc = assay: Luciferase reporter assay, Myc, HeLa; assay type: cell-based; settings: Homo sapiens; for IC50: HeLa cells, inducer PMA, dash: not inhibited by more than 40% at 50 µmol/L
Description: as §2

ETS = assay: Luciferase reporter assay, ETS, HeLa; assay type: cell-based, human
Description: as §2

Hedgehog = assay: Luciferase reporter assay, Hedgehog, HeLa; assay type: cell-based, human
Description: as §2

[3] = tested on: minimal thymidine kinase promoter (pTK); assay: Luciferase control vector pTK, HeLa; assay type: cell-based, human; settings: HeLa cells; up to 50 µM; no inducer
Description: as §2

[4] = Solubility in aqueous assay buffer; settings: aqueous buffer of the radioligand binding assay
[5] = Homo sapiens, HeLa cells, inducer IL6, dash: not inhibited by more than 40% at 50 µmol/L
[6] = Homo sapiens, HeLa cells, inducer TGF-beta, dash: not inhibited by more than 40% at 50 µmol/L
[7] = read-out: Additive effect (in % inhibition): percentage of luciferase induction, E2f (PMA)
[8] = Homo sapiens, HeLa cells, inducer PMA, dash: not inhibited by more than 40% at 50 µmol/L
[9] = HeLa cells, inducer PMA, dash: not inhibited by more than 40% at 50 µmol/L

SMILES	inhibition at 10 µM (δ opioid receptor) [%]	IC50 at 48 h [1] [mg/L]	IC50 at 48 h [2] [mg/L]	IC50 (Stat3; [5]) [µM]	IC50 (Smad2/3; [6]) [µM]	IC50 (E2F) [µM]	IC50 (Myc) [µM]	IC50 (ETS; [8]) [µM]	IC50 (Hedgehog; [8]) [µM]	Inhibition of luciferase expression driven by pTK [3]	solubility [4] [µM]	also measured
C[C@H]1CC[C@H]2[C@H](C1)c1c(O)cc(/C=C/c3ccccc3O)cc1OC2(C)C [compound 3, machaeriol C]	4.6	25 (≈ 68.6 µM)	> 50	38	37	14	10	15	10	no inhibition	< 33.3	Ki (δ opioid receptor; Δ Ki ± SEM, NA = not active): 17.1 ± 2.61 µM; IC50, Stat3 (IL6) (Stat3; HeLa cells, inducer IL6, dash: not inhibited by more than 40% at 50 µmol/L): lacked activity; inhibition at 10 µM (Stat3; Homo sapiens, HeLa, 3 alone at 10 µM, compared to pTK as control, read-out: Additive effect (in % inhibition): percentage of luciferase induction, Stat3 (IL-6)): 92%; IC50, Smad2/3 (TGF-beta) (Smad2/3; HeLa cells, inducer TGF-beta, dash: not inhibited by more than 40% at 50 µmol/L): lacked activity; inhibition at 10 µM (Smad2/3; Homo sapiens, HeLa, 3 alone at 10 µM, compared to pTK as control, read-out: Additive effect (in % inhibition): percentage of luciferase induction, Smad2/3 (TGF-β)): 93%; inhibition at 10 µM (E2F; [7]): 50%; inhibition at 10 µM (Myc; HeLa, 3 alone at 10 µM, compared to pTK as control, read-out: Additive effect (in % inhibition): percentage of luciferase induction, Myc (PMA)): 52%; inhibition at 10 µM (ETS; Homo sapiens, HeLa, 3 alone at 10 µM, compared to pTK as control, read-out: Additive effect (in % inhibition): percentage of luciferase induction, ETS (PMA)): 66%; inhibition at 10 µM (Hedgehog; Homo sapiens, HeLa, 3 alone at 10 µM, compared to pTK as control, read-out: Additive effect (in % inhibition): percentage of luciferase induction, Hedgehog (PMA)): 66%
C=C(C)[C@H]1CC[C@H](C)C[C@@H]1c1c(O)cc(/C=C/c2ccccc2O)cc1O [compound 6, machaeridiol B]	50.2	32 (≈ 87.8 µM)	> 50	4.7	1.2	5.7	5.3	> 50	> 50	no inhibition	< 33.3	Ki (δ opioid receptor; NA = not active, read-out: Δ Ki ± SEM): 6.54 ± 0.77 µM; Ki (δ opioid receptor; read-out: Δ pKi (converted)): 6.46 µM; inhibition at 2 µM (Stat3; Homo sapiens, HeLa, 6 alone at 2 µM, compared to pTK as control, read-out: Additive effect (in % inhibition): percentage of luciferase induction, Stat3 (IL-6)): 82%; inhibition at 2 µM (Smad2/3; Homo sapiens, HeLa, 6 alone at 2 µM, compared to pTK as control, read-out: Additive effect (in % inhibition): percentage of luciferase induction, Smad2/3 (TGF-β)): 109%; inhibition at 2 µM (E2F; [7]): 80%; inhibition at 2 µM (Myc; HeLa, 6 alone at 2 µM, compared to pTK as control, read-out: Additive effect (in % inhibition): percentage of luciferase induction, Myc (PMA)): 111%; IC50, ETS (PMA) (ETS; [9]): inactive; inhibition at 2 µM (ETS; Homo sapiens, HeLa, 6 alone at 2 µM, compared to pTK as control, read-out: Additive effect (in % inhibition): percentage of luciferase induction, ETS (PMA)): 107%; IC50, Hedgehog (PMA) (Hedgehog; [9]): inactive; inhibition at 2 µM (Hedgehog; Homo sapiens, HeLa, 6 alone at 2 µM, compared to pTK as control, read-out: Additive effect (in % inhibition): percentage of luciferase induction, Hedgehog (PMA)): 92%
